In patent US20070021509A1, “Phosphate transport inhibitors” (priority 2001, published 2007):
pIC50: −log10 of the molar value.

Columns and labels:
[1] = system: glucose uptake into isolated rabbit intestinal rings; experiment: Ex vivo glucose uptake into isolated rabbit intestinal rings; type: cell-based; design: concentration or dose not given beside the values; details: Table 14
Method: For the ex vivo assay, ^33P uptake into isolated rabbit intestinal rings was measured using a modification of the method described by Crane and Mandelstam [Robert K. Crane and Paul Mandelstam “The active transport of sugars by various preparations of hamster intestine” Biochim. Biophys. Acta 45: 460-476, 1960; the contents of which are incorporated herein by reference]. Male New Zealand rabbits 2-3 kg in weight were aeuthinized by an i.v. injection of Fatal Pluse®. A midline laparotomy was performed and the duodenum from the pyloric junction to the ligament of Trietz isolated and excised. Segments of bowel were everted, cut into 2-4 mm ring-like pieces and placed into a modified Hepes-Buffered Ringer's solution in which Na^+ had been iso-osmotically replaced with N-methyl-D-glucamine. […] […] Tissues were then solublized by digesting them in a 5 ml volume of Solvable® tissue solubilizer overnight at 50° C. and ^33P levels determined by scintillation counting. Sodium-dependent uptake of ^33P was calculated by determining the difference in uptake between rings incubated in the presence and absence of Na^+ in the Hepes-Buffered Ringer's solution. Results are reported as the percentage inhibition of phosphate and glucose uptake, respectively.

[2] = system: sodium-dependent phosphate uptake into isolated rabbit intestinal rings; experiment: Ex vivo 33P uptake into isolated rabbit intestinal rings; type: cell-based; design: concentration or dose not given beside the values; details: Table 14, 15-minute incubation
Method: For the ex vivo assay, ^33P uptake into isolated rabbit intestinal rings was measured using a modification of the method described by Crane and Mandelstam [Robert K. Crane and Paul Mandelstam “The active transport of sugars by various preparations of hamster intestine” Biochim. Biophys. Acta 45: 460-476, 1960; the contents of which are incorporated herein by reference]. Male New Zealand rabbits 2-3 kg in weight were aeuthinized by an i.v. injection of Fatal Pluse®. A midline laparotomy was performed and the duodenum from the pyloric junction to the ligament of Trietz isolated and excised. Segments of bowel were everted, cut into 2-4 mm ring-like pieces and placed into a modified Hepes-Buffered Ringer's solution in which Na^+ had been iso-osmotically replaced with N-methyl-D-glucamine. To measure phosphate uptake, six rings were incubated in a 50 ml conical tube containing a 10 ml volume of Ringer's solution, with or without Na^+, bubbled with 100% O2 and maintained at 37° C. 0.5 uCi/ml ^33P was then incubated with the rings for a 15-minute period, the tissue harvested, rinsed, blotted dry and weighed. Tissues were then solublized by digesting them in a 5 ml volume of Solvable® tissue solubilizer overnight at 50° C. and ^33P levels determined by scintillation counting. Sodium-dependent uptake of ^33P was calculated by determining the difference in uptake between rings incubated in the presence and absence of Na^+ in the Hepes-Buffered Ringer's solution. Results are reported as the percentage inhibition of phosphate and glucose uptake, respectively.

[3] = system: phosphate uptake by rabbit intestinal Brush Border Membrane Vesicles (BBMV); experiment: 33PO4 uptake in rabbit intestinal BBMV (HTS), phosphate transporter inhibition in vitro; type: biochemical; details: Table 14, in vitro, read-out: Phosphate Transport IC50
In short: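 BBMV from duodenal mucosa of male New Zealand White rabbits, diluted to about 0.5-2.0 mg/mL protein. Uptake buffers carried 33PO4 at 200,000 CPM/19 μL. Controls: Na uptake buffer (max), plus 100 μM KH2PO4 pH 7.4 (mid), K uptake buffer (min).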

Structure (SMILES)	% Glucose Transport Inhibition [1] [%]	% Phosphate Transport Inhibition [2] [%]	pIC50 [3]
Cn1nc(C(C)(C)C)cc1C(=O)Nc1ccc(C(F)(F)F)cc1 [Example 84, 5-tert-Butyl-2-methyl-2H-pyrazole-3-carboxylic acid (4-trifluoromethyl-phenyl)-amide]	21	41	4.96
O=C(Nc1cccc(C(F)(F)F)c1)Nc1cc(Cl)ccc1Cl [Example 85, 1-(2,5-Dichloro-phenyl)-3-(3-trifluoromethyl-phenyl)-urea]	0	58	5.00
O=C(Nc1cccc(C(F)(F)F)c1)Nc1ccc(F)c([N+](=O)[O-])c1 [Example 86, 1-(4-Fluoro-3-nitro-phenyl)-3-(3-trifluoromethyl-phenyl)-urea]	4	30	5.55
Cl.N=C(Nc1ccc(Cl)c(C(F)(F)F)c1)Nc1ccc(Cl)c(C(F)(F)F)c1 [Example 89, N,N′-Bis-(4-chloro-3-trifluoromethyl-phenyl)-guanidine Hydrochloride]	0	44	4.80
COc1ccccc1CNC(=O)c1cc(Br)ccc1NS(=O)(=O)c1ccc(OC(F)(F)F)cc1 [Example 70, 5-Bromo-N-(2-methoxy-benzyl)-2-(4-trifluoromethoxy-benzenesulfonylamino)-benzamide]	8	48	5.20
Cl.N=C(Nc1ccc(Br)c(C(F)(F)F)c1)Nc1ccc(Br)c(C(F)(F)F)c1 [Example 87, N,N′-Bis-(4-bromo-3-trifluoromethyl-phenyl)-guanidine Hydrochloride]	3	71	4.46
O=C(Nc1cccc(C(F)(F)F)c1)Nc1cccc(C(F)(F)F)c1 [Example 82, 1,3Bis(3-Trifluoromethylphenyl)urea]	26	25	4.96
O=C(NCc1ccc(F)cc1)c1cc(Br)ccc1NS(=O)(=O)c1ccc(OC(F)(F)F)cc1 [Example 71, 5-Bromo-N-(4-fluoro-benzyl)-2-(4-trifluoromethoxy-benzenesulfonylamino)-benzamide]	26	53	4.89
O=C(NCc1ccc(OC(F)(F)F)cc1O)c1cc(Br)ccc1NS(=O)(=O)c1ccc(OC(F)(F)F)cc1 [Example 75, 5-Bromo-N-(2-hydroxy-4-trifluoromethoxy-benzyl)-2-(4-trifluoromethoxy-benzenesulfonylamino)-benzamide]	0	56	5.28
Cl.N=C(Nc1cc(C(F)(F)F)cc(C(F)(F)F)c1)Nc1cc(C(F)(F)F)cc(C(F)(F)F)c1 [Example 88, N,N′-Bis-(3,5-bis-trifluoromethyl-phenyl)-guanidine Hydrochloride]	0	60	4.59
Cl.N=C(Nc1ccc(C(F)(F)F)c(C(F)(F)F)c1)Nc1ccc(C(F)(F)F)c(C(F)(F)F)c1 [Example 90, N,N′-Bis-(3,4-bis-trifluoromethyl-phenyl)-guanidine Hydrochloride]	0	93	4.77
O=C(Nc1cc(C(F)(F)F)cc(C(F)(F)F)c1)NC1CCCCC1 [Example 83, 1-Cyclohexyl-3-(3,5-Bistrifluoromethyl-phenyl)-urea]	0	76	5.11
COc1ccc(F)cc1CNC(=O)c1cc(Br)ccc1NS(=O)(=O)c1ccc(OC(F)(F)F)cc1 [Example 78, 5-Bromo-N-(5-fluoro-2-methoxy-benzyl)-2-(4-trifluoromethoxy-benzenesulfonylamino)-benzamide]	4	45	5.11
